This is an account of results in patent US7105695B2, “Synthesis of combretastatin A-2 prodrugs” (priority 2001, dated 2006).

≈ marks a conversion by molar mass, not a printed value. Like-named read-outs stand apart in the source and are kept apart here. Where only a bound is given, the exact number is not on record here.

Series [1] relates to mitosis. The settings on record: compared with the Z-isomer (1a); cited from earlier work.
In series [2] the test system is BXPC-3. The experiment in a line: Human cancer cell line growth inhibition, pancreas BXPC-3. Type of series: cell-based. The settings on record: BXPC-3 human cancer cell line.
Series [3] has as its system MCF-7. The experiment in a line: Human cancer cell line growth inhibition, breast MCF-7. The following applies: MCF-7 human cancer cell line. Type of series: cell-based.
The subject of series [4] is SF5268. The experiment in a line: Human cancer cell line growth inhibition, CNS gliob SF5268. Type of series: cell-based.
Series [5] has as its system NCI-H460. The experiment in a line: Human cancer cell line growth inhibition, lung-NSC NCI-H460. Type of series: cell-based.
The subject of series [6] is KM20L2. The experiment in a line: Human cancer cell line growth inhibition, colon KM20L2. Format: cell-based.
Series [7] relates to DU-145. Description: Human cancer cell line growth inhibition, prostate DU-145. Format: cell-based. The settings on record: DU-145 human cancer cell line.
Series [8] concerns NCI 60-cell screen. The experiment in a line: NCI 60-cell screen. The settings on record: mean ± SE, read-out: mean-panel GI50. Type of series: cell-based, human.
The subject of series [9] is Cryptococcus neoformans. Description: Broth microdilution susceptibility assay, Cryptococcus neoformans. The following applies: read-out: Minimum inhibitory concentration. Type of series: cell-based. From the text:
(§1) Compounds were screened against the bacteria Stenotrophomonas maltophilia, Micrococcus luteus, Staphylococcus aureus, Escherichia coli, Enterobacter cloacae, Enterococcus faecalis, Streptococcus pneumoniae, Neisseria gonorrhoeae, and the fungi Candida albicans and Cryptococcus neoformans, according to established broth microdilution susceptibility assays (NCCLS approved standard M7-A4, 1997; NCCLS approved standard M27-A, 1997). The minimum inhibitory concentration was defined as the lowest concentration of compound that inhibited all visible growth of the test organism (optically clear). Assays were repeated on separate days.

The subject of series [10] is Streptococcus pneumoniae. Description: Broth microdilution susceptibility assay, Streptococcus pneumoniae. The following applies: read-out: Minimum inhibitory concentration. Type of series: cell-based.
Excerpt: as §1
On the technique in general: In broth dilution the organism is exposed to a series of concentrations in liquid medium.

Series [11] has as its system Micrococcus luteus. The experiment in a line: Broth microdilution susceptibility assay, Micrococcus luteus. Type of series: cell-based. The settings on record: read-out: Minimum inhibitory concentration.
Excerpt: as §1

Series [12] relates to Neisseria gonorrhoeae. The experiment in a line: Broth microdilution susceptibility assay, Neisseria gonorrhoeae. Format: cell-based.
Excerpt: as §1

In series [13] the test system is bacteria and fungi panel. Description: Broth microdilution screen, whole panel of bacteria and fungi. Type of series: cell-based. The settings on record: among the compounds screened, Table III.
Excerpt: as §1

For series [14] the following is noted: 25° C.
Series [15] is described as follows: physchem. The following applies: 25 °C, water.

With `COc1ccc(C=Cc2cc(OC)c3c(c2)OCO3)cc1O` (single isomer, unassigned) [E-isomer of combretastatin A-2], the antimitotic activity result in series [1] is on record as “considerably less antimitotic activity”.
The term GI50 denotes the concentration at which growth is held to half of that of the control. By solubility is commonly meant how much of the substance goes into solution per volume. High values mean much dissolved substance, low ones little dissolved substance. Regarding `COc1ccc(/C=C\c2cc(OC)c3c(c2)OCO3)cc1O` [Compound 1a, Combretastatin A-2], the GI50 in series [2] worked out at 0.014 µg/mL (≈ 0.0466 µM); in series [3] (MCF7), 0.0042 µg/mL (≈ 0.014 µM); in series [4] (read-out: GI50 CNSGliob SF5268) it was 0.0083 µg/mL (≈ 0.0276 µM); in series [5] it was 0.043 µg/mL (≈ 0.143 µM); in series [6] (KM-20L2), 0.47 µg/mL (≈ 1.57 µM); in [7] (read-out: GI50 Prostrate DU-145), 0.0054 µg/mL (≈ 0.018 µM). Further, the GI50 in series [8] (Homo sapiens) was 83.3 ± 17.3 nM. Moreover, the MIC in series [9] is 64 µg/mL (≈ 213 µM); in [10], 64 µg/mL (≈ 213 µM); in [11] it was 64 µg/mL (≈ 213 µM); in [12] (read-out: Minimum inhibitory concentration), 32 µg/mL (≈ 107 µM). Also, the antimicrobial spectrum entry in [13] is recorded as “broadest antimicrobial spectra”. In addition, the Solubility in water in series [14] was less than 1000 µg/mL. Further, in [15], the solubility is less than 1000 µg/mL.
For the molecule “Sodium combretastatin A-2 3′-O-phosphate [Compound 2a]”, the “GI50 Pancreas BXPC-3” value in series [2] stood at 2.1 µg/mL. Further, the “GI50 Breast MCF-7” value in series [3] turned out to be 0.045 µg/mL. In series [4], the “GI50 CNSGliob SF5268” value came to 0.042 µg/mL. In [5], the “GI50 Lung-NSC NCI-H460” value was determined as 0.41 µg/mL. Also, in series [6], the “GI50 Colon KM20L2” value came out at 3.8 µg/mL. Moreover, the “GI50 Prostrate DU-145” value in [7] is 0.053 µg/mL. In addition, in series [8], the GI50 turned out to be 165 ± 30.7 nM. The Minimum inhibitory concentration in series [12] stood at 8 µg/mL. The same molecule came in with a Solubility in water in series [14] of 18000 µg/mL.
